US10844044B2 (Vanderbilt University, priority 2018, dated 2020)

Experiments:
[1] = system: MV4:11 human cancer cell lines; assay: Anti-proliferative activity, CellTiter-Glo viability assay, 7 day protocol; format: cell-based; details: Homo sapiens, MV4-11, 168 h, MV4:11 cells, 7 day incubation, read-out: GI50 on cellular proliferation of MV4:11 human cancer cell lines
Method: Viability assays are performed by dispensing […] into each well of an opaque 384-well plate and adding compounds at the indicated concentrations in a final volume of 32 μL and a final concentration of DMSO of 0.1% for all samples. After a set incubation period, 7 day protocol, the viability of cells in each well is assessed using the CellTiter-Glo assay (Promega), read on a GloMax 96 Microplane Luminometer (Promega). Serial dilutions of each cell type are included in all assays to generate standard curves and determine assay measurements are taken within the dynamic range of the instrument. GI50 values are calculated based on three biological replicates, each with three technical replicates. Data are expressed as mean plus/minus S.E.M.

WDR5 = WDR5 (Homo sapiens (Human), UniProt P61964); assay: TR-FRET binding assay (displacement of 10mer-Thr-FAM probe from WDR5); details: read-out: Ki for Inhibition of WDR5 by TR-FRET assay; TR-FRET, 10mer-Thr-FAM probe, WDR5-His tag 2 nM, pH 7.0

Structure (SMILES) | GI50 [1] | Ki (WDR5)
COc1cc(CNC(=O)c2cc(Cn3ccoc3=N)cc(-c3cccnc3C(F)(F)F)c2)cc(OC)c1 [Example 244, N-(3,5-Dimethoxybenzyl)-3-((2-iminooxazol-3(2H)-yl)methyl)-5-(2-(trifluoromethyl)pyridin-3-yl)benzamide] | 300 nM | 
COc1cc(OC)cc(C(NC(=O)c2cc(Cn3ccn(C)c3=N)cc(-c3ncc(F)cc3C(F)(F)F)c2)C2CC2)c1 (stereo not shown) [Example 74, N-(Cyclopropyl(3,5-dimethoxyphenyl)methyl)-3-(5-fluoro-3-(trifluoromethyl)pyridin-2-yl)-5-((2-imino-3-methyl-2,3-dihydro-1H-imidazol-1-yl)methyl)benzamide] | 4500 nM | 
Cc1cc(-c2cc(CN3CCCC3=N)cc(C(=O)NCc3ccc(Cl)c(Cl)c3)c2)c(C)cc1F [Example 332, N-(3,4-Dichlorobenzyl)-4′-fluoro-5-((2-iminopyrrolidin-1-yl)methyl)-2′,5′-dimethyl-[1,1′-biphenyl]-3-carboxamide] | 1400 nM | 
Cc1cc([C@@H](NC(=O)c2cc(Cn3ccoc3=N)cc(-c3cccnc3C(F)(F)F)c2)C2CC2)ccc1F [Example 243, (S)—N-(Cyclopropyl(4-fluoro-3-methylphenyl)methyl)-3-((2-iminooxazol-3(2H)-yl)methyl)-5-(2-(trifluoromethyl)pyridin-3-yl)benzamide] | < 100 nM | 
Cc1cc([C@H](C)NC(=O)c2cc(Cn3ccoc3=N)cc(-c3ccc(F)cc3C)c2)ccc1F [Example 230, (S)-4′-Fluoro-N-(1-(4-fluoro-3-methylphenyl)ethyl)-5-((2-iminooxazol-3(2H)-yl)methyl)-2′-methyl-[1,1′-biphenyl]-3-carboxamide] | 640 nM | 
COc1cc(OC)cc(C(NC(=O)c2cc(Cn3ccoc3=N)cc(-c3cccnc3C(F)(F)F)c2)C2CC2)c1 (stereo not shown) [Example 245, N-(Cyclopropyl(3,5-dimethoxyphenyl)methyl)-3-((2-iminooxazol-3(2H)-yl)methyl)-5-(2-(trifluoromethyl)pyridin-3-yl)benzamide] | 180 nM | 
Cc1cc([C@@H](NC(=O)c2cc(Cn3ccn(C)c3=N)cc(-c3ccc(F)cc3C(F)(F)F)c2F)C2CC2)ccc1F [Example 109] | < 100 nM | 
Cc1cc([C@@H](NC(=O)c2cc(Cn3ccoc3=N)cc(-c3ccc(F)cc3OC(F)F)c2)C2CC2)ccc1F [Example 242, (S)—N-(Cyclopropyl(4-fluoro-3-methylphenyl)methyl)-2′-(difluoromethoxy)-4′-fluoro-5-((2-iminooxazol-3(2 h)-yl)methyl)-[1,1′-biphenyl]-3-carboxamide] | 120 nM | 
Cc1cc([C@@H](NC(=O)c2cc(Cn3ccn(C)c3=N)cc(-c3ccnn3C(C)C)c2)C2CC2)ccc1F [Example 102, (S)—N-(Cyclopropyl(4-fluoro-3-methylphenyl)methyl)-3-((2-imino-3-methyl-2,3-dihydro-1H-imidazol-1-yl)methyl)-5-(1-isopropyl-1H-pyrazol-5-yl)benzamide] | 2160 nM | 
Cc1nc(F)ccc1-c1cc(CN2CCCC2=N)cc(C(=O)NCc2ccc(Cl)c(Cl)c2)c1 [Example 331, N-(3,4-Dichlorobenzyl)-3-(6-fluoro-2-methylpyridin-3-yl)-5-((2-iminopyrrolidin-1-yl)methyl)benzamide] | 950 nM | 
Cc1ccnc(C(NC(=O)c2cc(Cn3ccoc3=N)cc(-c3ncc(F)cc3C)c2)C2CC2)c1 (stereo not shown) [Example 239, N-(Cyclopropyl(4-methylpyridin-2-yl)methyl)-3-(5-fluoro-3-methylpyridin-2-yl)-5-((2-iminooxazol-3(2H)-yl)methyl)benzamide] | 5300 nM | 
Cc1cc(F)ccc1-c1cc(Cn2ccoc2=N)cc(C(=O)N[C@@H](C)c2ccc(F)c(C(F)(F)F)c2)c1 [Example 233, (S)-4′-Fluoro-N-(1-(4-fluoro-3-(trifluoromethyl)phenyl)ethyl)-5-((2-iminooxazol-3(2H)-yl)methyl)-2′-methyl-[1,1′-biphenyl]-3-carboxamide] | 1100 nM | 
CCn1cc(-c2cc(CN3CCOC3=N)cc(C(=O)N[C@H](c3ccc(F)c(C)c3)C3CC3)c2)c(C(F)(F)F)n1 [Example 276, (S)—N-(Cyclopropyl(4-fluoro-3-methylphenyl)methyl)-3-(1-ethyl-3-(trifluoromethyl) H-pyrazol-4-yl)-5-((2-iminooxazolidin-3-yl)methyl)benzamide] | < 100 nM | 
COc1ccnc([C@@H](NC(=O)c2cc(Cn3ccn(C)c3=N)cc(-c3ccc(F)cc3C)c2)C2CC2)c1 [Example 97] | 250 nM | 
Cc1ccnc(C(NC(=O)c2cc(Cn3ccn(C)c3=N)cc(-c3cccnc3C(F)(F)F)c2)C2CC2)c1 (stereo not shown) [Example 77, N-(Cyclopropyl(4-methylpyridin-2-yl)methyl)-3-((2-imino-3-methyl-2,3-dihydro-1H-imidazol-1-yl)methyl)-5-(2-(trifluoromethyl)pyridin-3-yl)benzamide] | 1200 nM | 
CCn1cc(-c2cc(Cn3ccoc3=N)cc(C(=O)NCc3ccc(=O)n(C)c3)c2)c(C(F)(F)F)n1 [Example 292, 3-(1-Ethyl-3-(trifluoromethyl)-1H-pyrazol-4-yl)-5-((2-iminooxazol-3(2H)-yl)methyl)-N-((1-methyl-6-oxo-1,6-dihydropyridin-3-yl)methyl)benzamide] | 710 nM | 
Cc1cc([C@@H](NC(=O)c2cc(Cn3ccn(C)c3=N)cc(OCC3CC3)c2)C2CC2)ccc1F [Example 175] | 320 nM | 
Cc1cc([C@@H](NC(=O)c2cc(Cn3ccn(C)c3=N)cc(-c3ccc(F)cc3C)c2)C2CC2)ccc1F [Example 54, (S)—N-(Cyclopropyl(4-fluoro-3-methylphenyl)methyl)-4′-fluoro-5-((2-imino-3-methyl-2,3-dihydro-1H-imidazol-1-yl)methyl)-2′-methyl-[1,1′-biphenyl]-3-carboxamide] | < 100 nM | 
Cc1cc([C@@H](C)NC(=O)c2cc(Cn3ccn(C)c3=N)cc(-c3ccc(F)cc3C)c2)ccc1F [Example 29, (R)-4′-Fluoro-N-(1-(4-fluoro-3-methylphenyl)ethyl)-5-((2-imino-3-methyl-2,3-dihydro-imidazol-1-yl)methyl)-2′-methyl-[1,1′-biphenyl]-3-carboxamide] | 780 nM | 
Cc1cc([C@H](C)NC(=O)c2cc(Cn3ccn(C)c3=N)cc(-c3ccc(F)cc3C)c2)ccc1F [Example 30, (S)-4′-Fluoro-N-(1-(4-fluoro-3-methylphenyl)ethyl)-5-((2-imino-3-methyl-2,3-dihydro-1H-imidazol-1-yl)methyl)-2′-methyl-[1,1′-biphenyl]-3-carboxamide] | 100 nM | 
Cc1cc([C@H](NC(=O)c2cc(Cn3ccn(C)c3=N)cc(-c3ccc(F)cc3C)c2)C(F)(F)F)ccc1F [Example 45, (S)-4′-fluoro-5-((2-imino-3-methyl-2,3-dihydro-1H-imidazol-1-yl)methyl)-2′-methyl-N-(2,2,2-trifluoro-1-(4-fluor-3-methylphenyl)ethyl)-[1,1′-biphenyl]-3-carboxamide] | 1800 nM | 
COc1cc(CNC(=O)c2cc(Cn3ccsc3=N)cc(-c3ccc(F)cc3C)c2)cc(OC)c1 [Example 307, N-(3,5-Dimethoxybenzyl)-4′-fluoro-5-((2-iminothiazol-3(2H)-yl)methyl)-2′-methyl-[1,1′-biphenyl]-3-carboxamide] | 910 nM | 
Cc1cc(F)ccc1-c1cc(Cn2ccn(C)c2=N)cc(C(=O)N[C@H](C)c2ccc(F)c(C(F)(F)F)c2)c1 [Example 32, (R)-4′-Fluoro-N-(1-(4-fluoro-3-(trifluoromethyl)phenyl)ethyl)-5-((2-imino-3-methyl-2,3-dihydro-1H-imidazol-1-yl)methyl)-2′-methyl-[1,1′-biphenyl]-3-carboxamide] | 1500 nM | 
Cc1cc([C@@H](NC(=O)c2cc(Cn3ccoc3=N)cc(-c3ncc(F)cc3C(F)(F)F)c2)C2CC2)ccc1F [Example 241, (S)—N-(Cyclopropyl(4-fluoro-3-methylphenyl)methyl)-3-(5-fluoro-3-(trifluoromethyl)pyridin-2-yl)-5-((2-iminooxazol-3(2H)-yl)methyl)benzamide] | 12000 nM | 
Cc1cc([C@H](C)NC(=O)c2cc(Cn3ccoc3=N)cc(-c3ccc(F)cc3C)c2)ccc1Cl [Example 234, (S)—N-(1-(4-Chloro-3-methylphenyl)ethyl)-4′-fluoro-5-((2-iminooxazol-3(2H)-yl)methyl)-2′-methyl-[1,1′-biphenyl]-3-carboxamide] | 870 nM | 
Cc1cc([C@H](NC(=O)c2cc(Cn3ccoc3=N)cc(-c3ccc(F)cc3C)c2)C(F)(F)F)ccc1F [Example 231, (S)-4′-Fluoro-5-((2-iminooxazol-3(2H)-yl)methyl)-2′-methyl-N-(2,2,2-trifluoro-1-(4-fluoro-3-methylphenyl)ethyl)-[1,1′-biphenyl]-3-carboxamide] | 870 nM | 
COc1cc(CNC(=O)c2cc(Cn3ccn(C)c3=N)cc(-c3cnc(F)cc3C)c2)cc(OC)c1 [Example 78, N-(3,5-Dimethoxybenzyl)-3-(6-fluoro-4-methylpyridin-3-yl)-5-((2-imino-3-methyl-2,3-dihydro-1H-imidazol-1-yl)methyl)benzamide] |  | 5.9 nM
Cc1ccnc(C(NC(=O)c2cc(Cn3ccn(C)c3=N)cc(-c3cccn3C)c2)C2CC2)c1 (stereo not shown) [Example 11, N-(Cyclopropyl(4-methylpyridin-2-yl)methyl)-3-((2-imino-3-methyl-2,3-dihydro-1H-imidazol-1-yl)methyl)-5-(1-methyl-1H-pyrrol-2-yl)benzamide] |  | 0.83 nM
